Test results taken from patent US8507510B2, “Sulfoximine-substituted pyrimidines as CDK- and/or VEGF inhibitors, their production and use as pharmaceutical agents” (Bayer Intellectual Property GmbH, priority 2003, dated 2013).

Experiments:
DU145 = experiment: Proliferation assay, DU145; type: cell-based, human; conditions: DU145 cells, 4 days, crystal violet
Excerpt: (§1) Cultivated human tumor cells (MCF7, […] human breast cancer cells, related to ATCC HTB22; NCI-H460, human non-small-cell lung cancer cells, ATCC HTB-177, HCT 116, human colon cancer cells, ATCC CCL-247; DU 145, hormone-independent human prostate cancer cells, ATCC HTB-81; MaTu-MDR, hormone-independent, multiple pharmaceutical agent-resistant human breast cancer cells, EPO-GmbH, Berlin) were flattened out at a density of about 5000 cells/measuring point, depending on the growth rate of the respective cells, in a 96-well multititer plate in 200 μl of the corresponding growth medium. After 24 hours, the cells of one plate (zero-point plate) were colored with crystal violet (see below), while the medium of the other plates was replaced by fresh culture medium (200 μl), to which the test substances were added in various concentrations (0 μm, as well as in the range of 0.01-30 μm; the final concentration of the solvent dimethyl sulfoxide was 0.5%). The cells were incubated for 4 days in the presence of test substances. The cell proliferation was determined by coloring the cells with crystal violet: the cells were fixed by adding 20 μl/measuring point of an 11% glutaric aldehyde solution for 15 minutes at room temperature. After three washing cycles of the fixed cells with water, the plates were dried at room temperature. The cells were colored by adding 100 μl/measuring point of a 0.1% crystal violet solution (the pH was set at 3 by adding acetic acid). After three washing cycles of the colored cells with water, the plates were dried at room temperature. The dye was dissolved by adding 100 μl/measuring point of a 10% acetic acid solution. The extinction was determined by photometry at a wavelength of 595 nm The change of cell growth, in percent, was calculated by normalization of the measured values to the extinction values of the zero-point plate (=0%) and the extinction of the untreated (0 μm) cells (=100%).

MaTu-ADR = experiment: Proliferation assay, MaTu-ADR; type: cell-based, human; conditions: MaTu-ADR cells, 4 days, crystal violet
Excerpt: as §1

MCF7 = experiment: Proliferation assay, MCF7; type: cell-based, human; conditions: MCF7 cells, 4 days, crystal violet
Excerpt: as §1

H460 = experiment: Proliferation assay, H460; type: cell-based, human; conditions: H460 cells, 4 days, crystal violet
Excerpt: as §1

CDK2/CycE = CDK2/CycE (Homo sapiens (Human), UniProt P24941); experiment: CDK2/CycE kinase assay; type: biochemical; conditions: histone IIIS substrate, 0.5 μm ATP
Procedure: Recombinant CDK2- and CycE-GST-fusion proteins, purified from baculovirus-infected insect cells (Sf9), were purchased by ProQinase GmbH, Freiburg. Histone IIIs, which was used as a kinase substrate, was purchased by the Sigma Company.
CDK2/CycE (50 ng/measuring point) was incubated for 15 minutes at 22° C. in the presence of various concentrations of test substances (0 μm, as well as within the range of 0.01-100 μm) in assay buffer [50 mmol of tris/HCl, pH 8.0, 10 mmol of MgCl2, 0.1 mmol of Na ortho-vanadate, 1.0 mmol of dithiothreitol, 0.5 μm of adenosine triphosphate (ATP), 10 μg/measuring point of histone IIIS, 0.2 μCi/measuring point of ^33P-gamma ATP, 0.05% NP40, 12.5% dimethyl sulfoxide]. The reaction was stopped by adding EDTA solution (250 mmol, pH 8.0, 14 μl/measuring point).
From each reaction batch, 10 μl was applied to P30 filter strips (Wallac Company), and non-incorporated ^33P-ATP was removed by subjecting the filter strips to three washing cycles for 10 minutes each in 0.5% phosphoric acid. After the filter strips were dried for one hour at 70° C., the filter strips were covered with scintillator strips (MeltiLex™ A, Wallac Company) and baked for one hour at 90° C. The amount of incorporated ^33P (substrate phosphorylation) was determined by scintillation measurement in a gamma-radiation measuring device (Wallac).

Row | IC50 (DU145; Homo sapiens, DU-145, 96 h) [nM] | IC50 (MCF7; Homo sapiens, MCF7, 96 h) [nM] | IC50 (MCF7) [nM] | SMILES | also measured
1 |  | < 100 |  | C[C@@H](O)[C@@H](C)Nc1nc(Nc2ccc(S(=N)(=O)CCO)cc2)ncc1Br (mixture of isomers) [Example 1.18, (RS)-S-[4-({5-bromo-4-[(1R,2R)-(2-hydroxy-1-methyl-propyl)amino]pyrimidin-2-yl}amino)phenyl]-S-(2-hydroxyethyl)sulfoximide] | 
2 |  | 300 |  | CCS(=N)(=O)c1ccc(Nc2ncc(Br)c(N[C@H](COC)[C@@H](C)O)n2)cc1 (mixture of isomers) [Example 1.48, (RS)—S-{4-[(5-bromo-4-{[(1R,2R)-2-hydroxy-1-(methoxymethyl)-propyl]amino}pyrimidin-2-yl)amino]phenyl}-S-ethyl sulfoximide] | 
3 |  |  | 300 | CCS(=N)(=O)c1ccc(Nc2ncc(Br)c(N[C@H](COC)[C@@H](C)O)n2)cc1 (mixture of isomers) [Example 1.49, (RS)-S-{4-[(5-bromo-4-{[(1R,2R)-2-hydroxy-1-(methoxymethyl)-propyl]amino}pyrimidin-2-yl)amino]phenyl}-S-ethyl sulfoximide] | IC50 (H460): 400 nM; IC50 (DU145): 300 nM; IC50 (MaTu-ADR): 600 nM
4 |  | 80 |  | CCS(=N)(=O)c1ccc(Nc2ncc(Br)c(N[C@H](C)[C@@H](C)O)n2)cc1 (mixture of isomers) [Example 1.51, (RS)—S-[4-({5-bromo-4-[(1R,2R)-(2-hydroxy-1-methylpropyl)amino]pyrimidin-2-yl}amino)phenyl]-S-ethyl sulfoximide] | 
5 |  |  | < 100 | CCS(=N)(=O)c1ccc(Nc2ncc(Br)c(N[C@H](C)[C@@H](C)O)n2)cc1 (mixture of isomers) [Example 1.52, (RS)-S-[4-({5-bromo-4-[(1R,2R)-(2-hydroxy-1-methylpropyl)amino]pyrimidin-2-yl}amino)phenyl]-S-ethyl sulfoximide] | 
6 |  |  | 300 | CCS(=N)(=O)c1ccc(Nc2ncc(Br)c(N[C@H](C)C(C)(C)O)n2)cc1 (mixture of isomers) [Example 1.55, (RS)-S-[4-({5-bromo-4-[(R)-(2-hydroxy-1,2-dimethylpropyl)amino]pyrimidin-2-yl}amino)phenyl]-S-ethyl sulfoximide] | IC50 (H460): 300 nM; IC50 (DU145): 300 nM; IC50 (MaTu-ADR): 150 nM
7 |  | < 100 |  | C[C@@H](O)[C@@H](C)Nc1nc(Nc2ccc(S(=N)(=O)CCO)cc2)ncc1Br (single isomer, unassigned) [Example 1.19] | 
8 |  | 1200 |  | CCS(=N)(=O)c1ccc(Nc2ncc(Br)c(N[C@H](COC)[C@@H](C)O)n2)cc1 (single isomer, unassigned) [Example 1.50] | 
9 |  | 300 |  | CCS(=N)(=O)c1ccc(Nc2ncc(Br)c(N[C@H](C)[C@@H](C)O)n2)cc1 (single isomer, unassigned) [Example 1.53] | IC50 (CDK2/CycE): 4 nM
10 |  | 20 |  | CCS(=N)(=O)c1ccc(Nc2ncc(Br)c(N[C@H](C)C(C)(C)O)n2)cc1 (single isomer, unassigned) [Example 1.56] | IC50 (H460; Homo sapiens, NCI-H460, 96 h): 100 nM; IC50 (MaTu-ADR; Homo sapiens, 96 h): 50 nM

The remaining lines, values behind:

Row | SMILES | IC50 (DU145; Homo sapiens, DU-145, 96 h) [nM] | IC50 (MCF7; Homo sapiens, MCF7, 96 h) [nM] | IC50 (MCF7) [nM] | also measured
11 | C[C@@H](Nc1nc(Nc2ccc(S(=N)(=O)CCO)cc2)ncc1Br)C(C)(C)O (mixture of isomers) [Example 1.14, (RS)-S-[4-({5-bromo-4-[(R)-(2-hydroxy-1,2-dimethylpropyl)amino]pyrimidin-2-yl}amino)phenyl]-S-(2-hydroxyethyl)-sulfoximide] | 90 |  |  | IC50 (MaTu-ADR; Homo sapiens, 96 h): 110 nM
12 | COc1cc(Nc2ncc(Br)c(N[C@H](C)[C@@H](C)O)n2)ccc1S(C)(=N)=O (mixture of isomers) [Example 1.26, (RS)-S-[4-({5-bromo-4-[(1R,2R)-(2-hydroxy-1-methylpropyl)amino]pyrimidin-2-yl}amino)-2-methoxyphenyl]-S-methyl sulfoximide] |  |  | 60 | 
13 | CN=S(C)(=O)c1ccc(Nc2ncc(Br)c(N[C@H](C)[C@@H](C)O)n2)cc1 (mixture of isomers) [Example 1.29, (RS)-S-[4-({5-bromo-4-[(1R,2R)-(2-hydroxy-1-methylpropyl)amino]pyrimidin-2-yl}amino)phenyl]-N,S-dimethyl-sulfoximide] |  |  | 170 | 
14 | CN=S(C)(=O)c1ccc(Nc2ncc(Br)c(N[C@H](C)[C@@H](C)O)n2)cc1 (mixture of isomers) [Example 1.30, (RS)-S-[4-({5-bromo-4-[(1R,2R)-(2-hydroxy-1-methylpropyl)amino]pyrimidin-2-yl}amino)phenyl]-N,S-dimethyl-sulfoximide] |  |  | 170 | 
15 | COC[C@@H](Nc1nc(Nc2ccc(S(C)(=N)=O)cc2)ncc1Br)[C@@H](C)O (mixture of isomers) [Example 1.46, (RS)-S-{4-[(5-bromo-4-{[(1R,2R)-2-hydroxy-1-(methoxymethyl)-propyl]amino}pyrimidin-2-yl)amino]phenyl}-S-methyl sulfoximide] | 170 | 200 |  | IC50 (H460; Homo sapiens, NCI-H460, 96 h): 110 nM; IC50 (MaTu-ADR; Homo sapiens, 96 h): 200 nM
16 | CCS(=N)(=O)c1ccc(Nc2ncc(Br)c(N[C@H](C)C(C)(C)O)n2)cc1 (mixture of isomers) [Example 1.54, (RS)—S-[4-({5-bromo-4-[(R)-(2-hydroxy-1,2-dimethylpropyl)amino]pyrimidin-2-yl}amino)phenyl]-S-ethyl sulfoximide] | 190 |  | 110 | IC50 (H460): 120 nM
17 | Cc1cc(Nc2ncc(Br)c(N[C@H](C)C(C)(C)O)n2)ccc1S(C)(=N)=O (mixture of isomers) [Example 1.57, (RS)—S-[4-({5-bromo-4-[(R)-(2-hydroxy-1,2-dimethylpropyl)amino]pyrimidin-2-yl}amino)-2-methylphenyl]-S-methyl sulfoximide] |  |  |  | IC50 (H460): 120 nM; IC50 (DU145): 110 nM; IC50 (MaTu-ADR): 90 nM
18 | Cc1cc(Nc2ncc(Br)c(N[C@H](C)C(C)(C)O)n2)ccc1S(C)(=N)=O (mixture of isomers) [Example 1.58, (RS)-S-[4-({5-bromo-4-[(R)-(2-hydroxy-1,2-dimethylpropyl)amino]pyrimidin-2-yl}amino)-2-methylphenyl]-S-methyl sulfoximide] |  |  | 60 | IC50 (H460): 30 nM; IC50 (DU145): 30 nM; IC50 (MaTu-ADR): 40 nM
19 | COc1cc(Nc2ncc(Br)c(N[C@H](C)[C@@H](C)O)n2)ccc1S(C)(=N)=O (single isomer, unassigned) [Example 1.27] | 130 | 60 |  | IC50 (H460; Homo sapiens, NCI-H460, 96 h): 20 nM
20 | C[C@@H](Nc1nc(Nc2ccc(S(C)(=N)=O)cc2)ncc1Br)C(C)(C)O (single isomer, unassigned) [Example 1.42] | 170 | 150 |  | IC50 (H460; Homo sapiens, NCI-H460, 96 h): < 100 nM; IC50 (MaTu-ADR; Homo sapiens, 96 h): < 100 nM
21 | COC[C@@H](Nc1nc(Nc2ccc(S(C)(=N)=O)cc2)ncc1Br)[C@@H](C)O (single isomer, unassigned) [Example 1.47] | 600 | 600 |  | IC50 (H460; Homo sapiens, NCI-H460, 96 h): 600 nM; IC50 (MaTu-ADR; Homo sapiens, 96 h): 800 nM; IC50 (CDK2/CycE): 6 nM
22 | Cc1cc(Nc2ncc(Br)c(N[C@H](C)C(C)(C)O)n2)ccc1S(C)(=N)=O (single isomer, unassigned) [Example 1.59] | < 100 | 110 |  | IC50 (H460; Homo sapiens, NCI-H460, 96 h): < 100 nM; IC50 (MaTu-ADR; Homo sapiens, 96 h): < 100 nM
